For 23 compounds, AC50 results are on record in ChEMBL document CHEMBL3727356, “Therapeutic compounds and compositions” (2014).

Test [1] has as its target Pyruvate kinase PKLR (Homo sapiens, UniProt P30613, R510Q). Kind of test: Activation of PKR R510Q mutant (unknown origin) incubated for 60 mins in presence of ADP, PEP and NADH by Spectraax microplate reader based assay.
Test [2] addresses Pyruvate kinase PKLR (Homo sapiens, UniProt P30613, R532W). Kind of test: Activation of PKR R532W mutant (unknown origin) incubated for 60 mins in presence of ADP, PEP and NADH by Spectraax microplate reader based assay.
For test [3], the target named is T1, Pyruvate kinase PKLR (Homo sapiens, UniProt P30613). The test is described as follows: Activation of wild type PKR (unknown origin) incubated for 60 mins in presence of ADP, PEP and NADH by Spectraax microplate reader based assay.
T1 sequence (P30613 whole entry): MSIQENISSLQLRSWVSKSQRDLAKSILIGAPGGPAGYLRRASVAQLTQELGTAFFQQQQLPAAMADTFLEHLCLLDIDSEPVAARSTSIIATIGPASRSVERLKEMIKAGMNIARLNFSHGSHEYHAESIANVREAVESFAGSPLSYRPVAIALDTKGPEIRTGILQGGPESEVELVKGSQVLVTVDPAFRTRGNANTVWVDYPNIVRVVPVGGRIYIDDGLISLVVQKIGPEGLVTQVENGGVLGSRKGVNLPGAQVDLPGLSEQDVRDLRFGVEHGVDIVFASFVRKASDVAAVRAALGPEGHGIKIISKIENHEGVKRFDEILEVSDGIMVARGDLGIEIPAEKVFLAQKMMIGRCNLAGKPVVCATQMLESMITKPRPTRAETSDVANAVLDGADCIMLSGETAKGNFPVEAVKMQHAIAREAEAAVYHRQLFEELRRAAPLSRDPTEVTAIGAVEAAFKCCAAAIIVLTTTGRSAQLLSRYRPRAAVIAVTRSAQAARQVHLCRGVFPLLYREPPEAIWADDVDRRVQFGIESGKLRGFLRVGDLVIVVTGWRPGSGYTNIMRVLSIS
Test [4] concerns the target T1, Pyruvate kinase PKLR. Kind of test: Activation of wild type PKR (unknown origin) by cell based assay.

Where only a bound is given, the exact number is not on record here.

Chain of Pyruvate kinase PKLR (Homo sapiens, UniProt P30613, R510Q) (P30613 whole entry R510Q): as the sequence (P30613 whole entry) above, with R510Q counted along it
Chain of Pyruvate kinase PKLR (Homo sapiens, UniProt P30613, R532W) (P30613 whole entry R532W): as the sequence (P30613 whole entry) above, with R532W counted along it

With `O=C(c1ccc(NS(=O)(=O)c2cccc3scnc23)cc1)N1CCC(O)(Cc2ccccc2C(F)(F)F)CC1`, the AC50 on Pyruvate kinase PKLR [1], at Pyruvate kinase PKLR [2], on Pyruvate kinase PKLR [3] and on Pyruvate kinase PKLR [4] was less than 100 nM each time.
Consider `O=C(c1ccc(NS(=O)(=O)c2cccc3cccnc23)cc1)N1CCC(O)(c2cccc(F)c2F)CC1`, for which the AC50 at Pyruvate kinase PKLR [1], at Pyruvate kinase PKLR [2], at Pyruvate kinase PKLR [3] and at Pyruvate kinase PKLR [4] was less than 100 nM throughout.
Turning to `Nc1nc2c(S(=O)(=O)Nc3ccc(C(=O)N4CCC(O)(c5cccc(F)c5F)CC4)cc3)cccc2s1`, the AC50 at Pyruvate kinase PKLR [1], on Pyruvate kinase PKLR [2], at Pyruvate kinase PKLR [3] and at Pyruvate kinase PKLR [4] was less than 100 nM each time.
`O=C(c1ccc(NS(=O)(=O)c2cccc3cccnc23)cc1)N1CCC(O)(Cc2ccccc2C(F)(F)F)CC1`: the AC50 at Pyruvate kinase PKLR [1], at Pyruvate kinase PKLR [2], at Pyruvate kinase PKLR [3] and on Pyruvate kinase PKLR [4] was less than 100 nM each time.
Take `COc1ccccc1CC1(O)CCN(C(=O)c2ccc(NS(=O)(=O)c3cccc4cccnc34)cc2)CC1`: the AC50 at Pyruvate kinase PKLR [1], at Pyruvate kinase PKLR [2], on Pyruvate kinase PKLR [3] and at Pyruvate kinase PKLR [4] was less than 100 nM throughout.
Consider `Nc1nc2c(S(=O)(=O)Nc3ccc(C(=O)N4CCC(O)(c5ccccc5Cl)CC4)cc3)cc(F)cc2s1`, for which the AC50 on Pyruvate kinase PKLR [1], on Pyruvate kinase PKLR [2], at Pyruvate kinase PKLR [3] and at Pyruvate kinase PKLR [4] was less than 100 nM in each case.
Take `CCc1ccccc1C1(O)CCN(C(=O)c2ccc(NS(=O)(=O)c3cccc4cccnc34)cc2)CC1`: the AC50 at Pyruvate kinase PKLR [1], on Pyruvate kinase PKLR [2], on Pyruvate kinase PKLR [3] and at Pyruvate kinase PKLR [4] was less than 100 nM in each case.
In the case of `O=C(c1ccc(NS(=O)(=O)c2cccc3cccnc23)cc1)N1CCC(O)(Cc2ccccc2F)CC1`, the AC50 on Pyruvate kinase PKLR [1], on Pyruvate kinase PKLR [2], at Pyruvate kinase PKLR [3] and on Pyruvate kinase PKLR [4] was less than 100 nM throughout.
Regarding `Cc1cc(F)ccc1C1(O)CCN(C(=O)c2ccc(NS(=O)(=O)c3cccc4cccnc34)cc2)CC1`, the AC50 on Pyruvate kinase PKLR [1], on Pyruvate kinase PKLR [2], at Pyruvate kinase PKLR [3] and at Pyruvate kinase PKLR [4] was less than 100 nM in each case.
`CC(C)CC1(O)CCN(C(=O)c2ccc(NS(=O)(=O)c3cccc4nc(N)cnc34)cc2)CC1`: the AC50 on Pyruvate kinase PKLR [1], at Pyruvate kinase PKLR [2], on Pyruvate kinase PKLR [3] and at Pyruvate kinase PKLR [4] was less than 100 nM throughout.
For the compound `O=C(c1ccc(NS(=O)(=O)c2cccc3cccnc23)cc1)N1CCC(O)(c2ccccc2Cl)CC1`, the AC50 on Pyruvate kinase PKLR [1], at Pyruvate kinase PKLR [2], on Pyruvate kinase PKLR [3] and on Pyruvate kinase PKLR [4] was less than 100 nM each time.
Consider `CC(C)CCC1(O)CCN(C(=O)c2ccc(NS(=O)(=O)c3cccc4scnc34)cc2)CC1`, for which the AC50 at Pyruvate kinase PKLR [1], at Pyruvate kinase PKLR [2], on Pyruvate kinase PKLR [3] and on Pyruvate kinase PKLR [4] was less than 100 nM in each case.
For the compound `O=C(c1ccc(NS(=O)(=O)c2cccc3cccnc23)cc1)N1CCC(O)(c2ccc(F)c(Br)n2)CC1`, the AC50 on Pyruvate kinase PKLR [1], at Pyruvate kinase PKLR [2], on Pyruvate kinase PKLR [3] and at Pyruvate kinase PKLR [4] was less than 100 nM throughout.
On to `O=C(c1ccc(NS(=O)(=O)c2cccc3cccnc23)cc1)N1CCC(O)(c2ccccc2C(F)(F)F)CC1`, for which the AC50 at Pyruvate kinase PKLR [1], at Pyruvate kinase PKLR [2], on Pyruvate kinase PKLR [3] and on Pyruvate kinase PKLR [4] was less than 100 nM throughout.
As for `O=C(c1ccc(NS(=O)(=O)c2cccc3cccnc23)cc1)N1CCC(O)(c2ccccc2C(F)F)CC1`, the AC50 on Pyruvate kinase PKLR [1], at Pyruvate kinase PKLR [2], on Pyruvate kinase PKLR [3] and at Pyruvate kinase PKLR [4] was less than 100 nM throughout.
Regarding `O=C(c1ccc(NS(=O)(=O)c2cccc3cccnc23)cc1)N1CCC(O)(c2cccc(F)c2Cl)CC1`, the AC50 on Pyruvate kinase PKLR [1], on Pyruvate kinase PKLR [2], at Pyruvate kinase PKLR [3] and on Pyruvate kinase PKLR [4] was less than 100 nM throughout.
On to `Cc1nscc1CC1(O)CCN(C(=O)c2ccc(NS(=O)(=O)c3cccc4scnc34)cc2)CC1`, for which the AC50 at Pyruvate kinase PKLR [1], at Pyruvate kinase PKLR [2], on Pyruvate kinase PKLR [3] and at Pyruvate kinase PKLR [4] was less than 100 nM each time.
As for `O=C(c1ccc(NS(=O)(=O)c2ccc3nsnc3c2)cc1)N1CCC(O)(Cc2ccccc2)CC1`, the AC50 on Pyruvate kinase PKLR [1] is no more than 1000 nM; at Pyruvate kinase PKLR [2], less than 100 nM; at Pyruvate kinase PKLR [3], less than 100 nM; at Pyruvate kinase PKLR [4] it was no more than 1000 nM.
Regarding `O=C(c1ccc(NS(=O)(=O)c2cccc3c2OCCC3)cc1)N1CCC(O)(c2ccccc2Cl)CC1`, the AC50 on Pyruvate kinase PKLR [1], on Pyruvate kinase PKLR [2], on Pyruvate kinase PKLR [3] and on Pyruvate kinase PKLR [4] was less than 100 nM throughout.
With `CC(C)CC1(O)CCN(C(=O)c2ccc(NS(=O)(=O)c3cccc4scnc34)cc2)CC1`, the AC50 at Pyruvate kinase PKLR [1], on Pyruvate kinase PKLR [2], at Pyruvate kinase PKLR [3] and on Pyruvate kinase PKLR [4] was less than 100 nM throughout.
With `Cc1ccccc1C1(O)CCN(C(=O)c2ccc(NS(=O)(=O)c3cccc4cccnc34)cc2)CC1`, the AC50 on Pyruvate kinase PKLR [1], on Pyruvate kinase PKLR [2], on Pyruvate kinase PKLR [3] and at Pyruvate kinase PKLR [4] was less than 100 nM throughout.
`Cc1nscc1CC1(O)CCN(C(=O)c2ccc(NS(=O)(=O)c3cccc4nccnc34)cc2)CC1`: the half-maximal activity concentration (AC50) on Pyruvate kinase PKLR [1], at Pyruvate kinase PKLR [2], at Pyruvate kinase PKLR [3] and at Pyruvate kinase PKLR [4] was less than 100 nM throughout.
For the compound `CC(C)(C)CC1(O)CCN(C(=O)c2ccc(NS(=O)(=O)c3cccc4scnc34)cc2)CC1`, the AC50 at Pyruvate kinase PKLR [1], on Pyruvate kinase PKLR [2], on Pyruvate kinase PKLR [3] and on Pyruvate kinase PKLR [4] was less than 100 nM throughout.

One may read the AC50 as the midpoint of the concentration-response curve, whichever way the signal moves.
